# Assays:
# [1] = target: Nuclear factor NF-kappa-B complex (Homo sapiens) (UniProt Q00653+P19838+Q04206); assay: Inhibition of TNF-alpha induced NFkappaB activation in HEK293 cells at 100 uM pretreated for 15 mins followed by stimulation with human recombinant TNFalpha and measured after 6 hrs by luminescence based assay relative to control; format: cell-based; details: time 375.0 min
# RAW264.7 [2] = assay: Inhibition of NO production in LPS-stimulated mouse RAW264.7 cells at 100 uM incubated for 18 hrs by Griess reagent-based assay; format: functional
# [3] = target: T1, Polyunsaturated fatty acid 5-lipoxygenase (Homo sapiens) (UniProt P09917); assay: Inhibition of 5-LOX (unknown origin) at 100 uM measured after 5 mins by colorimetric method relative to control
# T1 sequence (whole entry): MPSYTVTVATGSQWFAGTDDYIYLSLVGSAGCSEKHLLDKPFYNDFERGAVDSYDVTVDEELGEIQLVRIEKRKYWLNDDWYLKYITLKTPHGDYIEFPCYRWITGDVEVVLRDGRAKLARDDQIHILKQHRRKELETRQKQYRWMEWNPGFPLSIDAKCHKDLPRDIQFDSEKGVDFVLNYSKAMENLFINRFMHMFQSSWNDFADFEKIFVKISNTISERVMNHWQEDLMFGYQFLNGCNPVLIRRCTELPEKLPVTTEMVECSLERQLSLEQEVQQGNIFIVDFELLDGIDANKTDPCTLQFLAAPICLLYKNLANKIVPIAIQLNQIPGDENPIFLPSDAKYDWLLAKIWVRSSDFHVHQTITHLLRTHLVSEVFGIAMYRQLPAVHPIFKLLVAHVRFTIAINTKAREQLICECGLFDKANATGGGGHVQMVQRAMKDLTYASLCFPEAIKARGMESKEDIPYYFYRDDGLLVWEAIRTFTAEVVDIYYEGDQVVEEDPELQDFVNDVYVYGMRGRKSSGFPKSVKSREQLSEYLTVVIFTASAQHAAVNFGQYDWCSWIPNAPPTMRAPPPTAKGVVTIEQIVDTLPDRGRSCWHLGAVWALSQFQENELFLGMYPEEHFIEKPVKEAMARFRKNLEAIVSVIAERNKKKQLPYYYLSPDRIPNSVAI
# Mus musculus [4] = assay: Antiinflammatory activity in mouse assessed as inhibition of xylene-induced ear edema at 10 mg/kg, IG pre-treated for 30 mins followed by xylene administration and measured after 1 hrs relative to control; format: functional; details: po, time 1.5 hrs
# [5] = Inhibition of NO production in LPS-stimulated mouse BV-2 cells preincubated with compound for 1 hrs followed by LPS stimulation and measured after 24 hrs by Griess reagent-based assay; format: functional, cell-based
# [6] = Inhibition of LPS-induced NO production in mouse BV-2 cells […]; format: functional, cell-based
# Mus musculus [7] = assay: Antiinflammatory activity in Swiss Webster albino mouse assessed as inhibition of carrageenan-induced paw edema at 75 mg/kg, ip preadministered for 1 hrs followed by carrageenan induction and measured after 3 hrs by plethysmometer relative to control; format: functional; details: time 4 hrs
# Mus musculus [8] = assay: Analgesic activity in Swiss Webster albino mouse assessed as inhibition of acetic acid-induced writhing at 125 mg/kg, po pre-treated for 30 mins followed by acetic acid induction and measured for 15 mins relative to control; format: functional; details: 0.75 h, time 45 min
# [9] = target: T2, Acid-sensing ion channel 1 (Rattus norvegicus) (UniProt P55926); assay: Inhibition of rat ASIC1a ion channel expressed in Xenopus laevis oocytes in pH 6.9 buffer at -50 mV holding potential by voltage clamp electrophysiology recording; format: cell-based
# T2 sequence (whole entry): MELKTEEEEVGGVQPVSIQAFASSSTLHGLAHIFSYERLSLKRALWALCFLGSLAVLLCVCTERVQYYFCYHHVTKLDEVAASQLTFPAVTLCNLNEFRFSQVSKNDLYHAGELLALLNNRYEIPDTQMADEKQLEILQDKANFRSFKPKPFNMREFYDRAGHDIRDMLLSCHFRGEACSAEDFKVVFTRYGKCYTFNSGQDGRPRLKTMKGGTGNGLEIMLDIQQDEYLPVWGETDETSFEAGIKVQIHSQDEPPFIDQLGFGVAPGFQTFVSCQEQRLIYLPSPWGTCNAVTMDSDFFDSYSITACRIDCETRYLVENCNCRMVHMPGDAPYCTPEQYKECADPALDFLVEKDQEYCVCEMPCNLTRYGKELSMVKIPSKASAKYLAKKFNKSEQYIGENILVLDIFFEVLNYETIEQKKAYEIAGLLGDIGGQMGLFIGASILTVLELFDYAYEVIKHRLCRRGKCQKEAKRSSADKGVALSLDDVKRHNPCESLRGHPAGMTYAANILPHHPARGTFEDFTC
# [10] = target: T2, Acid-sensing ion channel 1 (Rattus norvegicus); assay: Inhibition of rat ASIC1a ion channel expressed in Xenopus laevis oocytes in pH 6.7 buffer at -50 mV holding potential by voltage clamp electrophysiology recording; format: cell-based
# [11] = target: T2, Acid-sensing ion channel 1 (Rattus norvegicus); assay: Inhibition of rat ASIC1a ion channel expressed in Xenopus laevis oocytes in pH 6.5 buffer at -50 mV holding potential by voltage clamp electrophysiology recording; format: cell-based
# [12] = Inhibition of TNF-alpha production in LPS-induced human U-937 cells preincubated with compound for 30 mins followed by LPS induction and measured after 4 hrs; format: functional, cell-based
# [13] = target: T3, Prostaglandin G/H synthase 2 (Homo sapiens, UniProt P35354); assay: Inhibition of COX-2 (unknown origin) by colorimetric analysis
# T3 sequence (P35354 whole entry): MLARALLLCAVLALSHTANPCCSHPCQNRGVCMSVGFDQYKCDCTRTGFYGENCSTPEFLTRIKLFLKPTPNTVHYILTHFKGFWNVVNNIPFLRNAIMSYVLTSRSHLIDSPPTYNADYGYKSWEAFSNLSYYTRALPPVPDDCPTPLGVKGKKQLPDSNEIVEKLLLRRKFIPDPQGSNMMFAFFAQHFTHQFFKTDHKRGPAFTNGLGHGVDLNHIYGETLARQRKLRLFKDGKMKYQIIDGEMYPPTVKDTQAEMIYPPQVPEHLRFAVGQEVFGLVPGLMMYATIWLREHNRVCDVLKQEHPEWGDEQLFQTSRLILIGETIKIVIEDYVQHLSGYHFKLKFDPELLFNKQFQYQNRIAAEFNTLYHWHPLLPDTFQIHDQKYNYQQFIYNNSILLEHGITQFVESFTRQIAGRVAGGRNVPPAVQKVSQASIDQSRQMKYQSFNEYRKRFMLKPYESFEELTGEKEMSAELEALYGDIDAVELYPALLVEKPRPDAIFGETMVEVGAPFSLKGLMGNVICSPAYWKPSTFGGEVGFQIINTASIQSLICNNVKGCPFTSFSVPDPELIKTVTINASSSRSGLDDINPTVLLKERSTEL
# [14] = target: Prostaglandin G/H synthase 1 (Homo sapiens, UniProt P23219); assay: Inhibition of COX-1 (unknown origin) by colorimetric analysis
# Prostaglandin G/H synthase 1, sequence (P23219 whole entry): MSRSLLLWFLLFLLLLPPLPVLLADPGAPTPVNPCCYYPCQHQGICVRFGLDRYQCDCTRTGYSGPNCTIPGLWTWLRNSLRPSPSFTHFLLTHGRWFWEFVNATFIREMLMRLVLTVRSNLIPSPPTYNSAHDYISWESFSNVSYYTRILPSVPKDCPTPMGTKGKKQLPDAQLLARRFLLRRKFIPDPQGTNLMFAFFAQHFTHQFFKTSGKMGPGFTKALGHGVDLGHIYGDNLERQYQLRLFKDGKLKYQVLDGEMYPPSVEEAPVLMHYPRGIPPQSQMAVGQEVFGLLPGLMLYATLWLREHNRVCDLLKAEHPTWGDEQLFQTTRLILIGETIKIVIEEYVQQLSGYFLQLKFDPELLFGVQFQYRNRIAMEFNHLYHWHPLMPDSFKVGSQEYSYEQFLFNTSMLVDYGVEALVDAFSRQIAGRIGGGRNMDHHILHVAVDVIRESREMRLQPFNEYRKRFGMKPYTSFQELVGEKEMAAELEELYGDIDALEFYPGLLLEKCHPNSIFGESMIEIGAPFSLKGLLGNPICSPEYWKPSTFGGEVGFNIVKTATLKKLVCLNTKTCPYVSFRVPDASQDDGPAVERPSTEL
# Mus musculus [15] = assay: Antiinflammatory activity in croton oil-induced Swiss mouse model of ear edema assessed as reduction in MPO activity administered via surface of left ear measured after 6 hrs relative to control; format: functional; set-up: scale not given: the % may be the effect or the level left; details: route au
# Mus musculus [16] = assay: Antiinflammatory activity in Swiss mouse assessed as reduction in croton oil-induced ear edema administered via surface of left ear measured after 6 hrs relative to control; format: functional; set-up: scale not given: the % may be the effect or the level left; details: route au
# RAW264.7 [17] = assay: Inhibition of NO production in LPS-stimulated mouse RAW264.7 cells preincubated with compound for 4 hrs followed by LPS stimulation and measured after 24 hrs by Griess reagent-based assay; format: functional, cell-based
# Mus musculus [18] = assay: Antiinflammatory activity in carrageenan-induced peritoneal Swiss albino mouse model assessed as decrease in number of leukocyte cells at 100 umol/kg, po pre-treated for 30 mins followed by carrageenan induction and measured after 4 hrs relative to control; format: functional; set-up: scale not given: the % may be the effect or the level left; details: dose 100 µmol/kg, time 4.5 hrs
# Mus musculus [19] = assay: Antiinflammatory activity against capsaicin-induced ear edema Swiss albino mouse model assessed as inhibition of plasma extravasation at 100 umol/kg, po pre-treated with compound for 40 mins followed by capsaicin stimulation and measured after 30 mins relative to control; format: functional
# [20] = Inhibition of NO production in LPS-induced mouse N9 cells incubated for 48 hrs by griess reagent based assay; format: functional, cell-based; details: N9, 48 h
# [21] = Antiinflammatory activity in rat polymorphonuclear leucocyte cells assessed as inhibition of PAF-induced beta-glucuronidase release at 10 uM preincubated for 20 mins followed by PAF addition relative to control; format: functional
# Nuclear factor NF-kappa-B complex (Homo sapiens), sequence (P19838 whole entry, looked up): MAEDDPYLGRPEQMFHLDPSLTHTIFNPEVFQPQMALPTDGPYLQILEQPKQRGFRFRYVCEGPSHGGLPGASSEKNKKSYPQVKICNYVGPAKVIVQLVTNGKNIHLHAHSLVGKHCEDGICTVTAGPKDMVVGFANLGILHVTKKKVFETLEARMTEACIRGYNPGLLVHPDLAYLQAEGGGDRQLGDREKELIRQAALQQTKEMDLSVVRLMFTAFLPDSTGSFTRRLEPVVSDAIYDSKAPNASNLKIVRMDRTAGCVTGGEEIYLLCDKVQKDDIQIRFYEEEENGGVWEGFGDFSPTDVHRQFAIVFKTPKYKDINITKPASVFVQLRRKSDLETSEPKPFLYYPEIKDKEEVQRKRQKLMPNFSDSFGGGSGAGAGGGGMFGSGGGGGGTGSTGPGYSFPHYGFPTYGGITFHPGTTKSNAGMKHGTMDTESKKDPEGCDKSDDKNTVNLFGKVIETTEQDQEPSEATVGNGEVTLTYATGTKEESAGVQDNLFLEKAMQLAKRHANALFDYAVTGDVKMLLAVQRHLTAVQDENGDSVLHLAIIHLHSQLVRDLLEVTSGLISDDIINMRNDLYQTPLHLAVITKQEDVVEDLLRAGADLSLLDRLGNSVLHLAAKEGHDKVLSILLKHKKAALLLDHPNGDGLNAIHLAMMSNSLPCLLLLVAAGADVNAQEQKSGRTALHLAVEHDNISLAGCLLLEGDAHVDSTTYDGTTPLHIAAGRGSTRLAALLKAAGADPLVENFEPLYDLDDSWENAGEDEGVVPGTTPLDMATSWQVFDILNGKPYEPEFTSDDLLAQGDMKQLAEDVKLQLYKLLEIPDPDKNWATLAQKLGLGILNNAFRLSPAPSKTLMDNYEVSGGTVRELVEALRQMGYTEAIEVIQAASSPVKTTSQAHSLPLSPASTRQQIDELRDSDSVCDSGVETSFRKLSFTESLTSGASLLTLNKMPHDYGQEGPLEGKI
# Nuclear factor NF-kappa-B complex (Homo sapiens), sequence (Q00653 whole entry, looked up): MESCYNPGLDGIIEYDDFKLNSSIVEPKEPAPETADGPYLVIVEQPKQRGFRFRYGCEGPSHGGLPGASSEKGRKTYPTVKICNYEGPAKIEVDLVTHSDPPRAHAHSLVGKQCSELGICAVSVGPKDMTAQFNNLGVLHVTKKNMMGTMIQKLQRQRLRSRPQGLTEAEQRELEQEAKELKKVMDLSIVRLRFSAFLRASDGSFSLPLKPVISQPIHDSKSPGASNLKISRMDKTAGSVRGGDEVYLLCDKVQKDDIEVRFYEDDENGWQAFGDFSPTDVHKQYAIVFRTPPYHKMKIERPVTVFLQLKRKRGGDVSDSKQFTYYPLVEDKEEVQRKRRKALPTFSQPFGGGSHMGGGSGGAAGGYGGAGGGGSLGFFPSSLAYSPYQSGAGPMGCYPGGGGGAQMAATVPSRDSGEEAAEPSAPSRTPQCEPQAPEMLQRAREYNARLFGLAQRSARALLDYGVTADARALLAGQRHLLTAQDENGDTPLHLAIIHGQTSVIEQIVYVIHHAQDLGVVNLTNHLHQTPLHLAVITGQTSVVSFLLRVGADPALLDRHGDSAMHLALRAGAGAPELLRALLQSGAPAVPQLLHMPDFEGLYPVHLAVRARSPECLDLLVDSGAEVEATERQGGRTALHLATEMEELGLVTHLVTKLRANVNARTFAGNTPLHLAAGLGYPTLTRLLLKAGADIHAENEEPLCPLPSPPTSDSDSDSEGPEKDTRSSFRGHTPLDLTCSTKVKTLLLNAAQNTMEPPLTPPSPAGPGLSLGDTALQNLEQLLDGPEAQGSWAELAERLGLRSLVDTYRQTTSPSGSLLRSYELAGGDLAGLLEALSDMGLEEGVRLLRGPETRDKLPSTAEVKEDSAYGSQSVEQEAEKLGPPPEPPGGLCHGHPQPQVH
# Nuclear factor NF-kappa-B complex (Homo sapiens), sequence (Q04206 whole entry, looked up): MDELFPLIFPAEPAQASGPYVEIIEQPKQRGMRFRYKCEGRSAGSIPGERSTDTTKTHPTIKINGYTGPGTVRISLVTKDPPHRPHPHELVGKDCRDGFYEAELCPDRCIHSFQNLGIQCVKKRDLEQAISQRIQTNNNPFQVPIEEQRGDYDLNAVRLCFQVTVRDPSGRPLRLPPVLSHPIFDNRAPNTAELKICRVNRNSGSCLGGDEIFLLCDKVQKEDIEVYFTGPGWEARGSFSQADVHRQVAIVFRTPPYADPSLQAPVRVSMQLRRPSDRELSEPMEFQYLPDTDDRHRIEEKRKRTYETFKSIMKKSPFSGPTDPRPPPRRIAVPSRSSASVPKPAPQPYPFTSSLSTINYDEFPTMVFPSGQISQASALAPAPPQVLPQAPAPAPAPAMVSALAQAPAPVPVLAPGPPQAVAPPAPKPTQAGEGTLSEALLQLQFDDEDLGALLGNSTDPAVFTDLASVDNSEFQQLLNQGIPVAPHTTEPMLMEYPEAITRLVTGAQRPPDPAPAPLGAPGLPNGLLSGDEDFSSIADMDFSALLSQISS
compound,measurement,setting,value
COc1cc2c(cc1O)-c1cc3ccc(OC)c(OC)c3c[n+]1CC2 [COLUMBAMINE],inhibition,[1],63.2%
same,inhibition at 100 µM,RAW264.7 [2],88.1%
C/C=C1/CN2[C@@H]3C[C@@]45c6ccccc6N[C@]4(O3)[C@@H]2C[C@@H]1[C@@H]5OC(C)=O,inhibition,[3],79.2%
same,inhibition in vivo at 10 mg/kg,Mus musculus [4],41.9%
COc1cc(/C=C/C(=O)CC(=O)/C=C/c2ccc(O)c(OC)c2)ccc1O [CURCUMIN],IC50,[5],0.5 µM
same,IC50,[6],0.5 µM
O=C1Oc2c(c3c(O)cc(O)cc3n2-c2ccc(O)cc2)C(=O)Oc2c1c1c(O)cc(O)cc1n2-c1ccc(O)cc1,inhibition in vivo at 75 mg/kg,Mus musculus [7],57.1%
same,inhibition in vivo at 125 mg/kg,Mus musculus [8],49.4%
COc1cc2c(cc1O)C(Cc1ccc(O)c(Oc3ccc(C[C@@H]4NCCc5cc(OC)c(O)cc54)cc3)c1)NCC2 (some centres not stated),inhibition,[9],98.1%
same,inhibition,[10],93.7%
same,inhibition,[11],69.3%
CCCCCCCCCC(=O)C/C(=C\c1cc(CCC)ncc1C(=O)OC)C(C)=O,IC50,[12],1.52 µM
CC(C)CC(=O)NC[C@H]1CC[C@H](NC(=O)c2nc3ccccc3cc2O)[C@H](O)O1,IC50,[13],1.4 µM
same,IC50,[14],4.9 µM
CN1C[C@H](O)C[C@H]1C(=O)O,Activity,Mus musculus [15],59.7%
same,Activity,Mus musculus [16],26.8%
CC(C)=CCOc1ccc(CCNC(=O)c2ccccc2)cc1,IC50,[6],4.9 µM
COc1cc(/C=C/CO)ccc1O[C@H]1CCCNC1=O,IC50,RAW264.7 [17],18.1 µM
COC(=O)/C1=C/c2c([nH]c3ccccc23)/C(C(=O)OC)=C\c2c1[nH]c1ccccc21 [CAULERPIN],Activity,Mus musculus [18],48.3%
same,inhibition in vivo at 100 µmol/kg,Mus musculus [19],55.8%
C=C[C@@H]1[C@@H](O[C@@H]2O[C@H](CO)[C@@H](O)[C@H](O)[C@H]2O)OC=C(C(=O)OC)[C@@H]1C[C@@H]1NCCc2c1[nH]c1ccccc21,IC50,[20],8.3 µM
COC1O[C@H]([C@@H]2c3cc4c(cc3CCN2C)OCO4)c2ccc3c(c21)OCO3 (some centres not stated),inhibition at 10 µM,[21],32.4%

# Reference: ChEMBL document CHEMBL5226289, “Discovery of natural anti-inflammatory alkaloids: Potential leads for the drug discovery for the treatment of inflammation” (Eur J Med Chem, 2021)
